These are literature values, as cited in patent US12606590B2, “MRNA 5′-end cap analogs, RNA molecule incorporating the same, uses thereof and method of synthesizing RNA molecule or peptide” (Uniwersytet Warszawski, priority 2020, dated 2026).

For this series the following is noted: in vitro and in vivo; single atom substitution in β position of cap oligophosphate bridge.

`CO[C@@H]1[C@H](O)[C@@H](COP(=O)(O)OP(=O)([S-])OP(=O)(O)OC[C@H]2O[C@@H](n3cnc4c(=O)[nH]c(N)nc43)[C@H](O)[C@@H]2O)O[C@H]1n1c[n+](C)c2c(O)nc(N)nc21` (stereo partly drawn) [β-S-ARCA]: the mRNA translation efficiency result is “significant increase in mRNA translation efficiency”.
